According to US9512120B2, “Microbicidally active imidazopyridine derivatives” (Syngenta Participations AG, priority 2013, dated 2016):

Legend:
[1] = system: Puccinia recondita f. sp. Tritici; assay: Puccinia recondita f. sp. tritici / wheat / leaf disc preventative (brown rust); format: in vivo; settings: foliar, wheat leaf segments cv Kanzler, inoculated 1 day after application, assessed 7-9 days after application, read-out: control of Puccinia recondita f. sp. Tritici (percent disease control compared to untreated)
How it was run: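 Preventative test: percent disease control relative to untreated leaf segments was assessed 7-9 days post-application. Wheat (cv Kanzler) leaf discs were treated at 200 ppm and spore-inoculated 1 day afterwards. Discs were held at 19° C and 75% relative humidity under a 12/12 h light cycle.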

[2] = system: Phaeosphaeria nodorum (Septoria nodorum); assay: Phaeosphaeria nodorum (Septoria nodorum) / wheat / leaf disc preventative (glume blotch); format: in vivo; settings: Parastagonospora nodorum, foliar, wheat leaf segments cv Kanzler, inoculated 2 days after application, assessed 5-7 days after application, read-out: control of Phaeosphaeria nodorum (percent disease control compared to untreated)
How it was run: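 Wheat leaf segments (cv Kanzler) on agar sprayed with compound at 200 ppm, inoculated with spores 2 days later. Incubated at 20° C., 75% relative humidity, 12/12 h light/dark; percent disease control versus untreated scored 5-7 days after application.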

[3] = system: Botryotinia fuckeliana (Botrytis cinerea); assay: Botryotinia fuckeliana (Botrytis cinerea) / liquid culture (gray mould); format: cell-based; settings: Vogels broth, 24° C., 3-4 days after application, read-out: control of Botryotinia fuckeliana (inhibition of growth, photometric)
How it was run: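 Test compound was applied at 200 ppm in DMSO, then Vogels nutrient broth containing cryo-stored B. cinerea conidia was added. Photometric growth-inhibition reading followed after 3-4 days at 24 °C.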

[4] = system: Mycosphaerella graminicola (Septoria tritici); assay: Mycosphaerella graminicola (Septoria tritici) / liquid culture (Septoria blotch); format: cell-based; settings: Zymoseptoria tritici, PDB, 24° C., 4-5 days after application, read-out: control of Mycosphaerella graminicola (inhibition of growth, photometric)
How it was run: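 Growth inhibition was read photometrically after 4–5 days at 24 °C. The test compound was applied at 200 ppm from DMSO solution, then PDB broth seeded with conidia taken straight from cryogenic storage was added.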

[5] = system: Gaeumannomyces graminis; assay: Gaeumannomyces graminis / liquid culture (take-all of cereals); format: cell-based; settings: PDB, 24° C., 4-5 days after application, read-out: control of Gaeumannomyces graminis (inhibition of growth, photometric)
How it was run: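 Growth inhibition, measured by photometry 4-5 days post-application at 24 °C, of fungal mycelial fragments in PDB broth. Test compound applied as DMSO solution at 200 ppm.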

[6] = system: Thanatephorus cucumeris (Rhizoctonia solani); assay: Thanatephorus cucumeris (Rhizoctonia solani) / liquid culture (foot rot, damping-off); format: cell-based; settings: PDB, 24° C., 3-4 days after application, read-out: control of Thanatephorus cucumeris (inhibition of growth, photometric)
How it was run: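 At 200 ppm, compounds in DMSO were combined with fresh liquid-culture mycelia in PDB and kept at 24° C; photometric measurement of growth inhibition after 3-4 days.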

[7] = system: Monographella nivalis (Microdochium nivale); assay: Monographella nivalis (Microdochium nivale) / liquid culture (foot rot cereals); format: cell-based; settings: PDB, 24° C., 4-5 days after application, read-out: control of Monographella nivalis (inhibition of growth, photometric)
How it was run: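 Cryostored conidia in potato dextrose broth were added to test compound dispensed from DMSO at 200 ppm. Plates were kept at 24° C, and growth inhibition was read photometrically 4-5 days after application.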

[8] = system: Blumeria graminis f. Sp. Tritici (Erysiphe graminis f. Sp. Tritici); assay: Blumeria graminis f. sp. tritici / wheat / leaf disc preventative (powdery mildew on wheat); format: in vivo; settings: foliar, wheat leaf segments cv. Kanzler, inoculated 1 day after application, assessed 6-8 days after application, read-out: control of Blumeria graminis (percent disease control compared to untreated)
How it was run: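 Wheat leaf segments (cv. Kanzler) on agar sprayed with formulated compound at 200 ppm, inoculated with powdery mildew 1 day later. Held at 20 °C, 60% RH, 24 h dark then 12 h/12 h light; percent disease control versus untreated scored 6-8 days after application.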

CCCn1c(-n2ncnc2N)nc2cnccc21 [Compound 13, 2-(1-propylimidazo[4,5-c]pyridin-2-yl)-1,2,4-triazol-3-amine]
≥ 80%: pest or weed control at 200 ppm [1] | pest or weed control at 200 ppm [2] | inhibition at 20 ppm [3] | inhibition at 20 ppm [4] | inhibition at 20 ppm [5] | inhibition at 20 ppm [6] | inhibition at 20 ppm [7] | pest or weed control at 200 ppm [8]

CCc1cncc2nc(-n3ncnc3N)n(CC)c12 [Compound 23, 2-(1,7-diethylimidazo[4,5-c]pyridin-2-yl)-1,2,4-triazol-3-amine]
≥ 80%: pest or weed control at 200 ppm [1] | pest or weed control at 200 ppm [2] | inhibition at 20 ppm [3] | inhibition at 20 ppm [4] | inhibition at 20 ppm [5] | inhibition at 20 ppm [6] | inhibition at 20 ppm [7] | pest or weed control at 200 ppm [8]

CC=Cc1cncc2nc(-n3ncnc3N)n(CC)c12 [Compound 67, 2-(1-ethyl-7-prop-1-enylimidazo[4,5-c]pyridin-2-yl)-1,2,4-triazol-3-amine]
≥ 80%: pest or weed control at 200 ppm [1] | pest or weed control at 200 ppm [2] | inhibition at 20 ppm [3] | inhibition at 20 ppm [4] | inhibition at 20 ppm [5] | inhibition at 20 ppm [6] | inhibition at 20 ppm [7] | pest or weed control at 200 ppm [8]

CCn1c(-n2ncnc2N)nc2cncc(C(C)=O)c21 [Compound 75, 1-[2-(5-amino-1,2,4-triazol-1-yl)-1-ethylimidazo[4,5-c]pyridin-7-yl]ethanone]
≥ 80%: pest or weed control at 200 ppm [1] | pest or weed control at 200 ppm [2] | inhibition at 20 ppm [3] | inhibition at 20 ppm [4] | inhibition at 20 ppm [5] | inhibition at 20 ppm [6] | inhibition at 20 ppm [7] | pest or weed control at 200 ppm [8]

CCn1c(-n2ncnc2N)nc2cncc(-c3ccc(F)c(F)c3F)c21 [Compound 86, 2-[1-ethyl-7-(2,3,4-trifluorophenyl)imidazo[4,5-c]pyridin-2-yl]-1,2,4-triazol-3-amine]
≥ 80%: pest or weed control at 200 ppm [1] | pest or weed control at 200 ppm [2] | inhibition at 20 ppm [3] | inhibition at 20 ppm [4] | inhibition at 20 ppm [5] | inhibition at 20 ppm [6] | inhibition at 20 ppm [7] | pest or weed control at 200 ppm [8]

CCn1c(-n2ncnc2N)nc2cncc(-c3cccnc3F)c21 [Compound 89, 2-[1-ethyl-7-(2-fluoropyridin-3-yl)imidazo[4,5-c]pyridin-2-yl]-1,2,4-triazol-3-amine]
≥ 80%: pest or weed control at 200 ppm [1] | pest or weed control at 200 ppm [2] | inhibition at 20 ppm [3] | inhibition at 20 ppm [4] | inhibition at 20 ppm [5] | inhibition at 20 ppm [6] | inhibition at 20 ppm [7] | pest or weed control at 200 ppm [8]

CCn1c(-n2ncnc2N)nc2cncc(-c3cccc(Cl)c3F)c21 [Compound 90, 2-[7-(3-chloro-2-fluorophenyl)-1-ethylimidazo[4,5-c]pyridin-2-yl]-1,2,4-triazol-3-amine]
≥ 80%: pest or weed control at 200 ppm [1] | pest or weed control at 200 ppm [2] | inhibition at 20 ppm [3] | inhibition at 20 ppm [4] | inhibition at 20 ppm [5] | inhibition at 20 ppm [6] | inhibition at 20 ppm [7] | pest or weed control at 200 ppm [8]

CCn1c(-n2ncnc2N)nc2cncc(-c3cccc(OC)c3F)c21 [Compound 93, 2-[1-ethyl-7-(2-fluoro-3-methoxyphenyl)imidazo[4,5-c]pyridin-2-yl]-1,2,4-triazol-3-amine]
≥ 80%: pest or weed control at 200 ppm [1] | pest or weed control at 200 ppm [2] | inhibition at 20 ppm [3] | inhibition at 20 ppm [4] | inhibition at 20 ppm [5] | inhibition at 20 ppm [6] | inhibition at 20 ppm [7] | pest or weed control at 200 ppm [8]

CCn1c(-n2ncnc2N)nc2cncc(-c3cccc(F)c3F)c21 [Compound 102, 2-[7-(2,3-difluorophenyl)-1-ethylimidazo[4,5-c]pyridin-2-yl]-1,2,4-triazol-3-amine]
≥ 80%: pest or weed control at 200 ppm [1] | pest or weed control at 200 ppm [2] | inhibition at 20 ppm [3] | inhibition at 20 ppm [4] | inhibition at 20 ppm [5] | inhibition at 20 ppm [6] | inhibition at 20 ppm [7] | pest or weed control at 200 ppm [8]

CCn1c(-n2ncnc2N)nc2cncc(/C(C)=N\OC/C=C(\C)Cl)c21 [Compound 153, 2-[7-[(Z)-N-[(E)-3-chlorobut-2-enoxy]-C-methyl-carbonimidoyl]-1-ethyl-imidazo[4,5-c]pyridin-2-yl]-1,2,4-triazol-3-amine]
≥ 80%: pest or weed control at 200 ppm [1] | pest or weed control at 200 ppm [2] | inhibition at 20 ppm [3] | inhibition at 20 ppm [4] | inhibition at 20 ppm [5] | inhibition at 20 ppm [6] | inhibition at 20 ppm [7] | pest or weed control at 200 ppm [8]

CCCn1c(-n2ncnc2N)nc2cncc(C)c21 [Compound 173, 2-(7-methyl-1-propyl-imidazo[4,5-c]pyridin-2-yl)-1,2,4-triazol-3-amine]
≥ 80%: pest or weed control at 200 ppm [1] | pest or weed control at 200 ppm [2] | inhibition at 20 ppm [3] | inhibition at 20 ppm [4] | inhibition at 20 ppm [5] | inhibition at 20 ppm [6] | inhibition at 20 ppm [7] | pest or weed control at 200 ppm [8]

CCCn1c(-n2ncnc2N)nc2cncc(CC)c21 [Compound 174, 2-(7-ethyl-1-propyl-imidazo[4,5-c]pyridin-2-yl)-1,2,4-triazol-3-amine]
≥ 80%: pest or weed control at 200 ppm [1] | pest or weed control at 200 ppm [2] | inhibition at 20 ppm [3] | inhibition at 20 ppm [4] | inhibition at 20 ppm [5] | inhibition at 20 ppm [6] | inhibition at 20 ppm [7] | pest or weed control at 200 ppm [8]
